What was measured:
[1] = test system: Beet Armyworm (Spodoptera exigua, LAPHEG) second instar larva; assay: Bioassay on beet armyworm (BAW), 128-well diet tray assay; format: in vivo; details: 50 μg/cm^2 on artificial diet, 25° C., five days
Procedure, shortened: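 Test molecule in 90:10 acetone–water applied at 50 μg/cm^2 onto 1 mL artificial diet and dried; one second-instar larva per well, eight wells. Held 5 days at 25 °C, 14:10 light–dark; percent mortality averaged over the eight wells.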

[2] = test system: Yellow Fever Mosquito (Aedes aegypti, AEDSAE) larvae; assay: Bioassay on yellow fever mosquito (YFM), 96-well plate larval assay; format: in vivo; details: 4000 ppm (master plate solution), about 1 day-old larvae, 3 days

| Compound | activity against BAW (percent mortality, averaged over eight wells) [1] | activity against YFM (scored based on mortality) [2] |
| --- | --- | --- |
| O=C(COCC(F)(F)F)Nc1c(F)ccc(NC(=O)[C@H]2[C@H](c3ccc(F)c(C(F)(F)F)c3)C2(Cl)Cl)c1F (racemic) [F95, trans-rac-2,2-Dichloro-N-(2,4-difluoro-3-(2-(2,2,2-trifluoroethoxy)acetamido)phenyl)-3-(4-fluoro-3-(trifluoromethyl)phenyl)cyclopropane-1-carboxamide] | exhibited activity | exhibited activity |
| O=C(Nc1cc(NC(=O)[C@H]2[C@H](c3ccc(F)c(C(F)(F)F)c3)C2(Cl)Cl)ccc1Cl)c1ccc(NC(=O)C(F)F)cc1F (racemic) [F111, trans-rac-N-(2-Chloro-5-(2,2-dichloro-3-(4-fluoro-3-(trifluoromethyl)phenyl)cyclopropane-1-carboxamido)phenyl)-4-(2,2-difluoroacetamido)-2-fluorobenzamide] | exhibited activity | exhibited activity |
| O=C(Nc1cc(NC(=O)[C@H]2[C@H](c3ccc(F)c(C(F)(F)F)c3)C2(Cl)Cl)ccc1Cl)c1ccc(NC(=O)C(F)(F)F)cc1F (racemic) [F112, trans-rac-N-(2-Chloro-5-(2,2-dichloro-3-(4-fluoro-3-(trifluoromethyl)phenyl)cyclopropane-1-carboxamido)phenyl)-2-fluoro-4-(2,2,2-trifluoroacetamido)benzamide] | exhibited activity | exhibited activity |
| CC(=O)Nc1ccc(C(=O)Nc2cc(NC(=O)[C@H]3[C@H](c4ccc(F)c(C(F)(F)F)c4)C3(Cl)Cl)ccc2Cl)c(C)c1F (racemic) [F113, trans-rac-4-Acetamido-N-(2-chloro-5-(2,2-dichloro-3-(4-fluoro-3-(trifluoromethyl)phenyl)cyclopropane-1-carboxamido)phenyl)-3-fluoro-2-methylbenzamide] | exhibited activity | exhibited activity |
| Cc1c(C(=O)Nc2cc(NC(=O)[C@H]3[C@H](c4ccc(F)c(C(F)(F)F)c4)C3(Cl)Cl)ccc2Cl)ccc(NC(=O)CC(F)(F)F)c1F (racemic) [F114, trans-rac-N-(2-Chloro-5-(2,2-dichloro-3-(4-fluoro-3-(trifluoromethyl)phenyl)cyclopropane-1-carboxamido)phenyl)-3-fluoro-2-methyl-4-(3,3,3-trifluoropropanamido)benzamide] | exhibited activity | exhibited activity |
| COCC(=O)Nc1ccc(C(=O)Nc2cc(NC(=O)[C@H]3[C@H](c4ccc(F)c(C(F)(F)F)c4)C3(Cl)Cl)ccc2Cl)c(C)c1F (racemic) [F115, trans-rac-N-(2-Chloro-5-(2,2-dichloro-3-(4-fluoro-3-(trifluoromethyl)phenyl)cyclopropane-1-carboxamido)phenyl)-3-fluoro-4-(2-methoxyacetamido)-2-methylbenzamide] | exhibited activity | exhibited activity |
| Cc1c(C(=O)Nc2cc(NC(=O)[C@H]3[C@H](c4ccc(F)c(C(F)(F)F)c4)C3(Cl)Cl)ccc2Cl)ccc(NC(=O)COCC(F)(F)F)c1F (racemic) [F116, trans-rac-N-(2-Chloro-5-(2,2-dichloro-3-(4-fluoro-3-(trifluoromethyl)phenyl)cyclopropane-1-carboxamido)phenyl)-3-fluoro-2-methyl-4-(2-(2,2,2-trifluoroethoxy)acetamido)benzamide] | exhibited activity | exhibited activity |
| CC(=O)Nc1ccc(C(=O)Nc2cc(NC(=O)[C@H]3[C@H](c4ccc(F)c(C(F)(F)F)c4)C3(Cl)Cl)ccc2Cl)c(F)c1 (racemic) [F117, trans-rac-4-Acetamido-N-(2-chloro-5-(2,2-dichloro-3-(4-fluoro-3-(trifluoromethyl)phenyl)cyclopropane-1-carboxamido)phenyl)-2-fluorobenzamide] | exhibited activity | exhibited activity |
| COCC(=O)Nc1ccc(C(=O)Nc2cc(NC(=O)[C@H]3[C@H](c4ccc(F)c(C(F)(F)F)c4)C3(Cl)Cl)ccc2Cl)c(F)c1 (racemic) [F118, trans-rac-N-(2-Chloro-5-(2,2-dichloro-3-(4-fluoro-3-(trifluoromethyl)phenyl)cyclopropane-1-carboxamido)phenyl)-2-fluoro-4-(2-methoxyacetamido)benzamide] | exhibited activity | exhibited activity |
| O=C(Nc1c(F)ccc(NC(=O)[C@H]2[C@H](c3cc(Cl)c(Cl)c(Cl)c3)C2(Cl)Cl)c1F)c1ccc(F)cc1F [F10, N-(3-((1R,3R)-2,2-dichloro-3-(3,4,5-trichlorophenyl)cyclopropane-1-carboxamido)-2,6-difluorophenyl)-2,4-difluorobenzamide] | exhibited activity | exhibited activity |
| O=C(Nc1c(F)ccc(NC(=O)[C@H]2[C@H](c3cc(Cl)c(Cl)c(Cl)c3)C2(Cl)Cl)c1F)C1CCCO1 (stereo partly drawn) [F11, N-(3-((1R,3R)-2,2-Dichloro-3-(3,4,5-trichlorophenyl)cyclopropane-1-carboxamido)-2,6-difluorophenyl)tetrahydrofuran-2-carboxamide] | exhibited activity | exhibited activity |
| CCCC(=O)Nc1c(F)ccc(NC(=O)[C@H]2[C@H](c3cc(Cl)c(Cl)c(Cl)c3)C2(Cl)Cl)c1F [F14, (1R,3R)—N-(3-Butyramido-2,4-difluorophenyl)-2,2-dichloro-3-(3,4,5-trichlorophenyl)cyclopropane-1-carboxamide] | exhibited activity | exhibited activity |
| CC(CC(=O)Nc1cccc(NC(=O)[C@H]2[C@H](c3cc(Cl)cc(Cl)c3)C2(Cl)Cl)c1F)C(F)(F)F (stereo partly drawn) [F15, (1R,3R)-2,2-Dichloro-3-(3,5-dichlorophenyl)-N-(2-fluoro-3-(4,4,4-trifluoro-3-methylbutanamido)phenyl)cyclopropane-1-carboxamide] | exhibited activity | exhibited activity |
| O=C(Nc1cccc(NC(=O)[C@H]2[C@H](c3cc(Cl)cc(Cl)c3)C2(Cl)Cl)c1F)c1ccc(F)cc1F [F16, N-(3-((1R,3R)-2,2-Dichloro-3-(3,5-dichlorophenyl)cyclopropane-1-carboxamido)-2-fluorophenyl)-2,4-difluorobenzamide] | exhibited activity | exhibited activity |
| CCOC(C)C(=O)Nc1cccc(NC(=O)[C@H]2[C@H](c3cc(Cl)cc(Cl)c3)C2(Cl)Cl)c1F (stereo partly drawn) [F18, (1R,3R)-2,2-Dichloro-3-(3,5-dichlorophenyl)-N-(3-(2-ethoxypropanamido)-2-fluorophenyl)cyclopropane-1-carboxamide] | exhibited activity | exhibited activity |
| O=C(Nc1cccc(NC(=O)C(F)(F)C(F)(F)C(F)(F)F)c1F)[C@H]1[C@H](c2cc(Cl)cc(Cl)c2)C1(Cl)Cl [F19, (1R,3R)-2,2-Dichloro-3-(3,5-dichlorophenyl)-N-(2-fluoro-3-(2,2,3,3,4,4,4-heptafluorobutanamido)phenyl)cyclopropane-1-carboxamide] | exhibited activity | exhibited activity |
| CCCC(=O)Nc1cccc(NC(=O)[C@H]2[C@H](c3cc(Cl)cc(Cl)c3)C2(Cl)Cl)c1F [F20, (1R,3R)—N-(3-Butyramido-2-fluorophenyl)-2,2-dichloro-3-(3,5-dichlorophenyl)cyclopropane-1-carboxamide] | exhibited activity | exhibited activity |
| CC(C#N)C(=O)Nc1cccc(NC(=O)[C@H]2[C@H](c3cc(Cl)cc(Cl)c3)C2(Cl)Cl)c1F (stereo partly drawn) [F22, (1R,3R)-2,2-Dichloro-N-(3-(2-cyanopropanamido)-2-fluorophenyl)-3-(3,5-dichlorophenyl)cyclopropane-1-carboxamide] | exhibited activity | exhibited activity |
| O=C(Nc1cc(NC(=O)[C@H]2[C@H](c3ccc(F)c(C(F)(F)F)c3)C2(Cl)Cl)ccc1Cl)c1cc(F)cc(F)c1 [F100, N-(2-Chloro-5-((1R,3R)-2,2-dichloro-3-(4-fluoro-3-(trifluoromethyl)phenyl)cyclopropane-1-carboxamido)phenyl)-3,5-difluorobenzamide] | exhibited activity | exhibited activity |
| O=C(Nc1cc(NC(=O)[C@H]2[C@H](c3cc(Cl)cc(Cl)c3)C2(Cl)Cl)ccc1Cl)c1ncc(F)cc1F [F106, N-(2-Chloro-5-((1R,3R)-2,2-dichloro-3-(3,5-dichlorophenyl)cyclopropane-1-carboxamido)phenyl)-3,5-difluoropicolinamide] | exhibited activity | exhibited activity |
| O=C(Nc1cc(NC(=O)[C@H]2[C@H](c3ccc(F)c(C(F)(F)F)c3)C2(Cl)Cl)ccc1Cl)c1cnc(F)c(F)c1 [F109, N-(2-Chloro-5-((1R,3R)-2,2-dichloro-3-(4-fluoro-3-(trifluoromethyl)phenyl)cyclopropane-1-carboxamido)phenyl)-5,6-difluoronicotinamide] | exhibited activity | exhibited activity |
